Measurements as given in article PMC10878790 (The Journal of Biological Chemistry, 2024).
Entries after “also recorded” stand apart in the source; their conditions may differ. Square brackets hold non-standard residues; d marks the D form. Ends that are not written are not given here. Peptide text beside a SMILES is read from it.

Columns and labels:
MDA-MB-231 = assay type: cell-based; conditions: MTT, 48 hours
Procedure: (§1) MDA-MB-231, MCF-7, DU-145, PC-3, and NIH-3T3 cell lines were procured from the American Type Culture Collection and used within ten consecutive passages to ensure consistent cell behavior. MDA-MB-231, MCF-7, and NIH-3T3 cells were maintained at 37 °C and 5% CO2 in Dulbecco's modified Eagle's medium (DMEM) high glucose (Hyclone) supplemented with 10% fetal bovine serum (FBS) and 1% Antibiotic-Antimycotic (Gibco), while DU-145 and PC-3 cells were grown in RPMI-1640 supplemented with the same concentration of FBS and Antibiotic-Antimycotic. The media was replenished every 2 days. Cells were checked for mycoplasma at regular intervals using a PCR-based Mycoplasma detection kit plasmocin prophylactic (InvivoGen). In all experiments, cells were maintained in serum-free DMEM for 6 h before peptide treatment. Peptide treatment was done in the media containing 0.1% fetal bovine serum for 48 h in all the experiments unless otherwise stated.
(§2) Cell viability was determined by 3-[4,5-dimethylthiazol-2-yl]-2,5 diphenyl tetrazolium bromide (MTT) assay as described earlier ([52]). ProTox-II "Prediction of Toxicity of Chemicals" web server was used for toxicology assessment ([19]). See the Supporting Information for full experimental details.
(§3) Full Experimental Method for Cell Viability Assay:
(§4) Cell viability of murine NIH- 3T3 cells, as well as MDA- MB -231 , MC F-7, PC- 3, and DU-145 cells, wa s assessed through the MT T assay as described previously(1). Approximately
(§5) 5000 cells per well were seeded in a 96-well plate and allowed to incubate overnight for attachment. Following attachment, the growth medium was replaced wit h a fresh medium
(§6) containing serial dilutions of peptides. The cells we re then incubated for 48 hours in a 5% CO2 incubator . After incubation, 10 μl of a 5 mg/mL MT T solution was introduced to each
(§7) well and left to incubate for an additional 2 hours . Subsequently, the entire medium, along wit h the MT T solution, was aspirated, and the remaining formazan crystals were dissolved
(§8) in 200 μl of DMSO. The absorbance was measured at 595 nm using a Biotek Synergy 2 Plate Reader. […]
(§9) ProTox-II "Prediction of Toxicity of Chemicals" we b server was used for toxicology assessment. […]

DU-145 = assay type: cell-based; conditions: MTT, 48 hours
Procedure: as §1, §2, §3, §4, §5, §6, §7, §8, §9

MCF-7 = assay type: cell-based; conditions: MTT, 48 hours
Procedure: as §1, §2, §3, §4, §5, §6, §7, §8, §9

PC-3 = assay type: cell-based; conditions: MTT, 48 hours
Procedure: as §1, §2, §3, §4, §5, §6, §7, §8, §9

MDA-MB-231 cells [1] = experiment: Transwell invasion assay; assay type: cell-based; conditions: 24 h
Procedure: (§10) The wound healing assay was performed using two breast cancer cell lines, MDA-MB-231 and MCF-7, and two prostate cancer cell lines, PC-3 and DU-145, to evaluate the antimigratory capacity of the peptides. […] The cells were grown to approximately 80% confluency in 12-well tissue culture plates, and a cell-free area was created by scraping the monolayer. The peptides were added, and the cells were incubated at 37 °C with 5% CO2 for 24 h. Wound closure was assessed by imaging the wounds at 0 and 24 h, and the wound areas were quantified using ImageJ software (https://imagej.net/ij/). In the transwell invasion assay, MDA-MB-231 cells were serum starved for 4 h followed by a pretreatment with increasing concentrations of each peptide in a 0.1% serum-containing DMEM for 24 h. The cells were then trypsinized, resuspended in same media for the second treatment of peptides, and counted. Next, 40,000 cells were resuspended in 0.1% serum containing DMEM and added to the upper chamber of Transwell plates (Corning Life Sciences) with a polyethylene terephthalate membrane (6.4 mm diameter, 8 μm pore size). The bottom chambers were filled with DMEM containing 10% FBS as a chemoattractant. The transwell plates were incubated at 37 °C with 5% CO2 for 24 h to allow the invasion of cells through the membrane. The invaded cells on the lower side of the membrane were fixed with 4% paraformaldehyde for 15 min, followed by a PBS wash. The membrane inserts were further fixed with ice-cold methanol for 20 min and stained with 0.25% (w/v) crystal violet. After incubation, the noninvasive cells on the upper surface of the membrane were gently removed using a cotton swab. Random fields were chosen for imaging, and the number of invaded cells was counted using ImageJ software. The results were expressed as the average number of invaded cells compared with the control.

NIH-3T3 = assay type: cell-based, murine; conditions: MTT, 48 hours; normal cells
Procedure: as §1, §2, §3, §4, §5, §6, §7, §8, §9

MDA-MB-231 cells [2] = experiment: Wound healing assay; assay type: cell-based; conditions: equimolar peptide concentrations; compared to untreated cells
Procedure: as §10

[3] = Mouse liver microsome stability; conditions: for half-life at 2 μM / remaining at 2 h, 2 μM: male; for half-life at 2 μM: ICR/CD-1, mouse; for remaining at 2 h, 2 μM: Institute of Cancer Research/CD-1, mouse
Procedure: An NADPH-regenerating system (1.7 mg/ml NADP, 7.8 mg/ml glucose-6-phosphate, 6 U/ml glucose-6-phosphate dehydrogenase in 2% w/v NaHCO3/10 mm MgCl2) was added for analysis of Phase I metabolism after heating both the regenerating solution and the sample tubes to 37 °C for 5 min in a 37 °C shaking water bath. The incubation was continued and at varying time points after addition of phase I cofactors, the reaction was stopped by the addition of 0.5 ml of acetonitrile containing IS and formic acid such that the final concentration of IS was 100 ng/ml and acid was 0.1%. Time 0 samples were stopped with the acetonitrile solution while still on ice prior to addition of the NADPH regenerating system and compound, which were subsequently added. The samples were incubated for 10 min at room temperature and then spun at 16,100g for 5 min in a microcentrifuge at 4 °C. The supernatant was analyzed by LC-MS/MS. The method described by McNaney et al. was used with modification for determination of metabolic stability half-life by substrate depletion ([59]). A “% remaining” value was used to assess the metabolic stability of a compound over time. The LC-MS/MS peak area of the incubated sample at each time point was divided by the LC-MS/MS peak area of the time 0 (T0) sample and multiplied by 100. The natural Log (LN) of the % remaining of compound was then plotted versus time (in min) and a linear regression curve was plotted going through y-intercept at LN (100).

[4] = In vivo toxicity of peptides alone; parameters: species or system athymic nude mice; conditions: for body weight / signs of distress / survival: 90 mg/Kg ip on day 5, day 10 and day 15; for survival: after 30 days; for signs of toxicity: three ip doses of 90 mg/Kg, 90 mg/kg
Procedure: MDA-MB-231 cells were implanted orthotopically into the second thoracic mammary fat pad of nude mice (n = 5). […] The control mice received vehicle only. B, at the end of the experiments, representative tumors were removed and photographed. […] The tumor sizes were measured by a digital caliper and shown as mean volume ± SDs every alternate day for 30 days. […] The statistical analysis was performed on GraphPad Prism 9.4.0. […] E–H, Western blots of cell lysates prepared from the tumors of untreated tumor (Vehicle) versus LA3IK and RP-7 for apoptosis-associated proteins. Number of tumors taken for study = 4 per group. Densitometry was determined and normalized to β-actin. Bar graphs are densitometric data (means ± SD). Data analyzed by one-way ANOVA. ∗p < 0.05,∗∗p <0.01 and ∗∗∗p < 0.001. Full-length representative blots are in Figure S8(2). […] The mice were monitored for changes in body weights as a surrogate marker for toxicity.
Cleaved caspase-3 plays a pivotal role in transmitting apoptotic signals through its enzymatic actions on downstream targets, including PARP and other substrates. PARP, which is an ADP-ribosylating enzyme, is essential for initiating various types of DNA repair processes ([29]). However, when it is cleaved by activated caspase-3, PARP loses its functionality, leading to the suppression of DNA repair mechanisms. This, in turn, may promote cell death through both caspase-dependent and caspase-independent pathways of apoptosis ([30]).

[5] = Pharmacokinetic studies in CD1 mice; conditions: in vivo, iv, 5 mg/kg
MDA-MB-231 cells [6] = experiment: Western blot of MIEN1 signaling pathway proteins; assay type: cell-based; conditions: mean values of immunoblot densitometry
Procedure: Cells were exposed to the peptides and subjected to Western blot analysis with the indicated antibodies. […] Cytoplasmic and nuclear cell lysate extracts of EGF only and EGF plus peptide-treated cells were probed for p65 and p50. Lamin A/C and β-actin were used as nuclear and cytoplasmic loading control respectively. Densitometry was determined with immunoblots (N = 3) and normalized to total protein or β-actin for whole cell lysates and cytoplasmic fraction of peptide-treated MDA-MB-231 cells. In case of nuclear lysates, the immunoblots were normalized with Lamin A/C. Bar graphs are densitometric data (means ± SD). […] EGF concentration: (10 ng/ml); Peptide concentration: 90 μM. EGF, epidermal growth factor; MIEN1, migration and invasion enhancer 1; NF-κB, nuclear factor kappa B.
Western blot analysis was performed according to standard protocols to assess the effects of MIEN1-derived peptides and their analogs on MDA-MB-231 cells and DU-145 cells. Cell lysates were prepared using radioimmunoprecipitation assay buffer and quantified for protein content by bicinchoninic acid method. […] Protein blocking with 5% bovine serum albumin was followed by incubation with primary antibodies specific to various proteins at 4 °C for 8 to 10 h. The membrane was then washed three times in Tris Buffered Saline with Tween 20 and incubated with the appropriate secondary antibody. Protein bands were visualized using the Alpha Innotech chemiluminescent detection system. In case of MDA-MB-231 cells, cytoplasmic and nuclear extracts were isolated to investigate the effects of peptides and/or EGF stimulation. Prior to exposure to the cells, the test peptides (90 μM) were incubated with EGF (10 ng/ml) in media at 4 °C for 15 min. The untreated MDA-MB-231 cells received EGF alone at the same concentration. The isolation of cytoplasmic and nuclear fractions was performed using the Subcellular Protein Fractionation Kit for Cultured Cells from Thermo Fisher Scientific (cat #78840) following the manufacturer's guidelines. For Western blot experiments, 20 μg of purified cytoplasmic and nuclear fraction was used.
Densitometry analysis of Western blot data was conducted using the AlphaView-FluorChem HD2 software of the Alpha Innotech chemiluminescent detection system (https://www.cambridgescientific.com/product/alpha-innotech-fluorchem-hd2-gel-imaging-system). To quantify band intensities, a uniform rectangle was drawn around each band, and background subtraction was applied to determine the total pixel density for each lane. Further calculations, including the determination of the ratio of phosphorylated proteins to total proteins or other loading controls, were carried out using Microsoft Excel. […]

Molecule	IC50 (MDA-MB-231)	IC50 (DU-145)	IC50 (MCF-7)	IC50 (PC-3)	number of invaded MDA-MB-231 cells / inhibition of invasion (MDA-MB-231 cells [1])	IC50 (NIH-3T3)	inhibition of migration (MDA-MB-231 cells [2])	body weight / signs of distress [4]	survival [4]	signs of toxicity [4]	remaining at 2 h, 2 μM ([3]; microsomes, pH 7.5)	further results
LASAVK [LA-6, LASAVK]	> 600 µM	> 600 µM	> 600 µM	> 600 µM	limited inhibition	> 600 µM	limited inhibition	–	–	–	–	–
CC[C@H](C)[C@H](NC(=O)[C@H](C)NC(=O)[C@H](CC(C)C)NC(C)=O)C(=O)N[C@@H](C)C(=O)N[C@H](C(=O)N[C@@H](CCCCN)C(N)=O)C(C)C [LA3IK, LAIAVK]	–	–	–	–	–	–	–	No body weight loss or other signs of distress	All mice (N = 3) were alive	did not display any signs of toxicity; also recorded: no significant toxicity	–	half-life at 2 μM ([3]; liver microsomes, pH 7.5): > 2 h; remaining at 2 h, 2 μM ([3]; liver microsomes, pH 7.5): 83.7%
Ac-RPPCVIL-NH2 [RP-7]	139 ± 8.41 µM	121 ± 7.08 µM	110 ± 4.23 µM	113 ± 8.02 µM	–	221 ± 6.23 µM	–	No body weight loss or other signs of distress	All mice (N = 3) were alive	did not display any signs of toxicity; also recorded: no significant toxicity	17.7%	half-life at 2 μM ([3]; microsomes, pH 7.5, Mouse Liver Microsome T1/2, 2 μM peptide): 0.872 h; half-life at 2 μM ([3]; microsomes, pH 7.5, Mouse Liver Microsome T ½ (h), 2 μM peptide, 0.5 mg/ml microsome protein, NADPH-regenerating system): 0.87 h
CC[C@@H](C)[C@@H](NC(=O)[C@H](NC(=O)[C@@H](CS)NC(=O)[C@H]1CCCN1C(=O)[C@H]1CCCN1C(=O)[C@@H](CCCNC(=N)N)NC(C)=O)C(C)C)C(=O)N[C@H](CC(C)C)C(N)=O [D-RP-7] (Ac-[dR][dP][dP][dC][dV][dI][dL]-NH2)	95 ± 7.71 µM	122 ± 6.56 µM	90 ± 10.3 µM	101 ± 5.73 µM	–	210 ± 8.41 µM	–	–	–	–	64.4%	MRT ([5]; female, CD1, mouse): 5.7 h; Tmax ([5]; female, CD1, mouse): 4.8 min; Vd ([5]; female, CD1, mouse): 1700 L/kg; Cmax ([5]; mouse): 48 ng/mL; Vd ([5]; mouse): 1310 L/kg; clearance ([5]; mouse): 1420 mL/min/kg; half-life ([5]; mouse): 13.8 h; half-life ([3]; mouse, microsomes, Mouse Liver Microsome T ½ (h), 2 μM peptide, 0.5 mg/ml microsome protein, NADPH-regenerating system): > 2 h; greater inhibition of FAK phosphorylation than L-peptide counterpart (MDA-MB-231 cells [6]): 24.2%; greater inhibition of SRC phosphorylation than L-peptide counterpart (MDA-MB-231 cells [6]): 29.5%
CC[C@H](C)[C@H](NC(=O)[C@@H](NC(=O)[C@H](CS)NC(=O)[C@@H]1CCCN1C(=O)[C@@H]1CCCN1C(=O)[C@H](CCCNC(=N)N)NC(=O)[C@H](CS)NC(C)=O)C(C)C)C(=O)N[C@@H](CC(C)C)C(N)=O [CR-8] (Ac-CRPPCVIL-NH2)	–	–	–	–	limited inhibition	–	limited inhibition	–	–	–	–	–
Ac-SRPPCVIL-NH2 [SR-8]	528.3 ± 4.57 µM	> 600 µM	141 ± 12.9 µM	> 600 µM	limited inhibition	> 600 µM	limited inhibition	–	–	–	–	–
